# From PMC9413508, “PI3K/mTOR Dual Inhibitor Pictilisib Stably Binds to Site I of Human Serum Albumin as Observed by Computer Simulation, Multispectroscopic, and Microscopic Studies” (Molecules, 2022)
# Target: T1, human serum albumin (HSA) (Homo sapiens, UniProt P02768)
# T1 construct: gene ALB; fatty-acid-free HSA, commercial (Sigma-Aldrich); mature protein, 585 residues, monomer
# Assay: intrinsic Trp fluorescence quenching, double-log plot
# Format: binding
# Conditions: 298 K, pH 7.4 PBS 10 mM, HSA 2 μM; λex 280 nm; n = 1.14; site I (subdomain IIA)
# Experimental: intrinsic Trp fluorescence quenching, double-log plot on human serum albumin (HSA) | the association constant (Ka) between GDC-0941 and HSA was calculated
# T1 sequence (P02768 25-609): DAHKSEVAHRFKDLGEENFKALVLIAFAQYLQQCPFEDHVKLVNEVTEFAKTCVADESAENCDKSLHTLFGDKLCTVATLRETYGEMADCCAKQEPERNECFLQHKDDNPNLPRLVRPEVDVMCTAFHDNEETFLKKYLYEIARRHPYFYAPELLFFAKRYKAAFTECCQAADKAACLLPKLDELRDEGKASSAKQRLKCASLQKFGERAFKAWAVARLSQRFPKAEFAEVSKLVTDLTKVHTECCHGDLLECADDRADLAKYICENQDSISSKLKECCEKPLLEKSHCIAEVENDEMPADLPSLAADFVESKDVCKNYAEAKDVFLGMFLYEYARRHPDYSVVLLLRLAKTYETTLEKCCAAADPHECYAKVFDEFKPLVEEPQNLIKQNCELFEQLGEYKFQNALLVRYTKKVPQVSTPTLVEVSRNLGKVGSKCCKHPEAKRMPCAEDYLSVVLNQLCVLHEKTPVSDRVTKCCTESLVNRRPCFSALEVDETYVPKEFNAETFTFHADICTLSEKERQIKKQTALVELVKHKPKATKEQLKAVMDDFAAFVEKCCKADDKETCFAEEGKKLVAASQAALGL
compound,measurement,value
CS(=O)(=O)N1CCN(Cc2cc3nc(-c4cccc5[nH]ncc45)nc(N4CCOCC4)c3s2)CC1 [GDC-0941],Ka (×10^5 M^-1),4.09 ×10^5 M^−1
